Several values for one entry are separate records, joined by “and”; a condition that tells them apart may be missing. Equal values may be shown once. Inconclusive results and toxic doses are left out. The calls were made as follows: active = survival T/C of 150% or more; inactive = T/C below 125% in these data.
Tested on: P388 leukemia ip, CD2F1 mice, survival T/C
Assay: NCI In Vivo Anticancer Drug Screen. Data for tumor model P388 Leukemia (intraperitoneal) in CD2F1 (CDF1) mice
Conditions: endpoint: median survival time, higher = longer survival
Method in brief: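 Mice carrying the transplanted tumor received test compound or vehicle. Survival was recorded in each group, and the value is the treated-group measurement divided by that of the vehicle-treated control group.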

[1] = dose: 60.0 mg/kg/injection, schedule: Q01DX005 (ip), vehicle: saline with Tween-80
[2] = dose: 120.0 mg/kg/injection, schedule: Q01DX005 (ip), vehicle: saline with Tween-80
[3] = dose: 240.0 mg/kg/injection, schedule: Q01DX005 (ip), vehicle: saline with Tween-80
[4] = dose: 50.0 mg/kg/injection, schedule: Q01DX005 (ip), vehicle: Klucel (hydroxypropylcellulose) (HPC)
[5] = dose: 100.0 mg/kg/injection, schedule: Q01DX005 (ip), vehicle: Klucel (hydroxypropylcellulose) (HPC)
[6] = dose: 200.0 mg/kg/injection, schedule: Q01DX005 (ip), vehicle: Klucel (hydroxypropylcellulose) (HPC)
[7] = dose: 50.0 mg/kg/injection, schedule: Q01DX009 (ip), vehicle: saline with Tween-80

Measured: T/C

Cc1ccc(C(=O)C2(c3ccc(C)cc3)CCCCC2)cc1
inactive: dose: 50.0 mg/kg/injection, schedule: Q04DX002 (ip), vehicle: Klucel (hydroxypropylcellulose) (HPC) 91 % of control | dose: 100.0 mg/kg/injection, schedule: Q04DX002 (ip), vehicle: Klucel (hydroxypropylcellulose) (HPC) 90 % of control | dose: 200.0 mg/kg/injection, schedule: Q04DX002 (ip), vehicle: Klucel (hydroxypropylcellulose) (HPC) 95 % of control | dose: 400.0 mg/kg/injection, schedule: Q04DX002 (ip), vehicle: Klucel (hydroxypropylcellulose) (HPC) 91 % of control

Cc1ccc(/C=N/N)s1
inactive: dose: 50.0 mg/kg/injection, schedule: Q04DX003 (ip), vehicle: other 90 % of control | dose: 100.0 mg/kg/injection, schedule: Q04DX003 (ip), vehicle: other 100 % of control | dose: 200.0 mg/kg/injection, schedule: Q04DX003 (ip), vehicle: other 100 % of control

CN(C)c1cccc2c(Cl)c(Cl)c3cccc(N(C)C)c3c12
inactive: [1] 98 % of control | [2] 100 % of control | [3] 99 % of control

O=C1CCC2(CC1)CCc1ccccc1C2=O
inactive: dose: 100.0 mg/kg/injection, schedule: Q01DX001 (ip), vehicle: saline with Tween-80 103 % of control | dose: 200.0 mg/kg/injection, schedule: Q01DX001 (ip), vehicle: saline with Tween-80 97 % of control | dose: 400.0 mg/kg/injection, schedule: Q01DX001 (ip), vehicle: saline with Tween-80 103 % of control

COC(=O)c1ccccc1S(=O)(=O)N1CCOCC1
inactive: [4] 99 % of control | [5] 99 % of control | [6] 98 % of control

CNC(=O)Nc1ccc(/C(C)=N/NC(N)=S)cc1
inactive: [1] 96 % of control | [2] 89 % of control

NC1C=NNC1=O (configuration not stated)
inactive: [1] 110 % of control | [2] 116 % of control | [3] 116 % of control

Cc1ccc(/C(CBr)=N/N=C(/CBr)c2ccc(C)cc2)cc1
inactive: dose: 50.0 mg/kg/injection, schedule: Q01DX009 (ip), vehicle: Klucel (hydroxypropylcellulose) (HPC) 100 % of control | dose: 100.0 mg/kg/injection, schedule: Q01DX009 (ip), vehicle: Klucel (hydroxypropylcellulose) (HPC) 92 % of control | dose: 200.0 mg/kg/injection, schedule: Q01DX009 (ip), vehicle: Klucel (hydroxypropylcellulose) (HPC) 98 % of control

Cc1coc2c1CCC(C)C2 (configuration not stated)
inactive: dose: 12.5 mg/kg/injection, schedule: Q01DX009 (ip), vehicle: saline with Tween-80 92 % of control | dose: 25.0 mg/kg/injection, schedule: Q01DX009 (ip), vehicle: saline with Tween-80 107 % of control | [7] 100 % of control and 110 % of control

O=C1OC(c2ccccc2)=N/C1=C/c1cccn(-c2ccccc2)c1=S
inactive: [4] 94 % of control | [5] 87 % of control | [6] 86 % of control

CC1=C2C(=CC(C)(C)[C@@H]2O)C(=O)[C@](C)(O)C12CC2
inactive: dose: 0.26 mg/kg/injection, schedule: Q01DX010 (ip), vehicle: saline 110 % of control | dose: 0.4 mg/kg/injection, schedule: Q01DX010 (ip), vehicle: saline 110 % of control | dose: 0.6 mg/kg/injection, schedule: Q01DX010 (ip), vehicle: saline 115 % of control | dose: 45.0 micrograms/kg/injection, schedule: Q01DX010 (ip), vehicle: saline 100 % of control | dose: 90.0 micrograms/kg/injection, schedule: Q01DX010 (ip), vehicle: saline 104 % of control | dose: 180.0 micrograms/kg/injection, schedule: Q01DX010 (ip), vehicle: saline 113 % of control

O=C(O)/C=C(\F)C(=O)O
inactive: dose: 12.5 mg/kg/injection, schedule: Q01DX005 (ip), vehicle: saline 97 % of control and 94 % of control | dose: 25.0 mg/kg/injection, schedule: Q01DX005 (ip), vehicle: saline 100 % of control and 96 % of control | dose: 50.0 mg/kg/injection, schedule: Q01DX005 (ip), vehicle: saline 100 % of control and 107 % of control | dose: 100.0 mg/kg/injection, schedule: Q01DX005 (ip), vehicle: saline 92 % of control and 97 % of control | dose: 200.0 mg/kg/injection, schedule: Q01DX005 (ip), vehicle: saline 97 % of control

CCOc1cccc2c1CCC(O[Si](C)(C)C(C)(C)C)C2 (configuration not stated)
inactive: dose: 50.0 mg/kg/injection, schedule: Q01DX005 (ip), vehicle: saline with Tween-80 94 % of control | dose: 100.0 mg/kg/injection, schedule: Q01DX005 (ip), vehicle: saline with Tween-80 95 % of control | dose: 200.0 mg/kg/injection, schedule: Q01DX005 (ip), vehicle: saline with Tween-80 96 % of control

COC(=O)C(C(=O)OC)C(CC(=O)c1ccccc1)c1ccccc1 (configuration not stated)
inactive: [7] 109 % of control | dose: 100.0 mg/kg/injection, schedule: Q01DX009 (ip), vehicle: saline with Tween-80 103 % of control | dose: 200.0 mg/kg/injection, schedule: Q01DX009 (ip), vehicle: saline with Tween-80 103 % of control
